Legend:
[1] = Pharmacokinetic parameters used for estimating the potential for DDIs; assay type: in vivo, human
Procedure: Ka was calculated manually based on available pharmacokinetic parameters.

human OCT1 (hOCT1) = biological target: T1, human OCT1 (hOCT1) (Homo sapiens, UniProt O15245); design: expressed in transfected cells; empty vector control pcDNA5; method as in ref column References of Table 2 (Tzvetkov et al, 2018; Morse et al, 2020; Jensen et al, 2020; Meyer et al, 2019, 2022; Wittern et al, 2024 and own unpublished data; Elsby et al, 2017); details: literature values; References of Table 2 (Tzvetkov et al, 2018; Morse et al, 2020; Jensen et al, 2020; Meyer et al, 2019, 2022; Wittern et al, 2024 and own unpublished data; Elsby et al, 2017); cited from earlier work
T1 sequence (O15245 1-554): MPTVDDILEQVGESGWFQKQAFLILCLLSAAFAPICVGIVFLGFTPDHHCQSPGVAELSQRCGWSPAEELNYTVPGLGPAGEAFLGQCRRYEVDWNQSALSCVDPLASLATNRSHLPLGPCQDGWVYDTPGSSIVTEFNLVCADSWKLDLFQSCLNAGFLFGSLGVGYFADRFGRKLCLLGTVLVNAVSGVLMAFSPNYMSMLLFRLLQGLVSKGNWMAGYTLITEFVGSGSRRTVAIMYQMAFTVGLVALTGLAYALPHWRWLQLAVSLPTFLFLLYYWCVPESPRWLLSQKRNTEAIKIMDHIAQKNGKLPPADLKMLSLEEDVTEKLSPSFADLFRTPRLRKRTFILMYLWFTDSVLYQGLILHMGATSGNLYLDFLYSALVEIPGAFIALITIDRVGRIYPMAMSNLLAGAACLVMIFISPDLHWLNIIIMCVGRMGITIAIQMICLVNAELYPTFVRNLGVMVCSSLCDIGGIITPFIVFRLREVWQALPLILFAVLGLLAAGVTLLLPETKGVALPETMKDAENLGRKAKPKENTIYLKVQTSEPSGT

mouse OCT1 = biological target: T2, mouse OCT1 (Mus musculus, UniProt O08966); assay: Uptake of the cocktail by HEK293 cells overexpressing mouse Oct1
T2 sequence (O08966 1-556): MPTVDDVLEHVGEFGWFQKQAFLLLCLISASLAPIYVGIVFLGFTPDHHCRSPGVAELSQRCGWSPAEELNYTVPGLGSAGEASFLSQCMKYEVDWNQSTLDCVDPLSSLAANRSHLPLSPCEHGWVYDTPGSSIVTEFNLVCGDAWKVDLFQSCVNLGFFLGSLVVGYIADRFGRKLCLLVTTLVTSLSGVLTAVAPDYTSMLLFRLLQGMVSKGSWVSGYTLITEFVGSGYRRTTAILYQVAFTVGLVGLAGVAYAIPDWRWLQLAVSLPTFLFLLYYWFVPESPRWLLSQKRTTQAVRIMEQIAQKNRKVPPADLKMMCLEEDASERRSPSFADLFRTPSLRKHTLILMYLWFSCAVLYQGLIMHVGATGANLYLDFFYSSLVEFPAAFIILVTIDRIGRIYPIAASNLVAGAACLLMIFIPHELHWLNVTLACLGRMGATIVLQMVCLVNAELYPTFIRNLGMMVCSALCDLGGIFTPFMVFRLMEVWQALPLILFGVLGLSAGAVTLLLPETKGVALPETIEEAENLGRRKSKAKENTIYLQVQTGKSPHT
Procedure: (§1) Significance was calculated using Mann–Whitney U test. n = 5–8 independent experiments.

mOct1 = tested on: mOct1; design: method as in ref column References of Table 2 (Morse et al, 2020; Jensen et al, 2020; Meyer et al, 2022); details: literature values; References of Table 2 (Morse et al, 2020; Jensen et al, 2020; Meyer et al, 2022); cited from earlier work
OCT1 [2] = details: read-out: inhibitory potency for metformin uptake via OCT1; substrate metformin; ref Ahlin et al, 2011; Panfen et al, 2019; cited from earlier work
[3] = cited from earlier work; for cmax = Imax: dose and route as in Supplemental Table 4, ref Hardman, 2018, fenoterol Tzvetkov et al; for cmax = Imax / fraction unbound: ipratropium Zhang et al, 2023; for fraction unbound: fraction unbound in plasma, ref Hardman, 2018, Lombardo et al (2018), fenoterol Tzvetkov et al; for t1/2: ref Hardman, 2018, fenoterol Tzvetkov et al
OCT1 [4] = biological target: T3, OCT1 (Homo sapiens, UniProt O15245); assay: Uptake of the cocktail by HEK293 cells overexpressing human OCT1
T3 sequence (O15245 1-554): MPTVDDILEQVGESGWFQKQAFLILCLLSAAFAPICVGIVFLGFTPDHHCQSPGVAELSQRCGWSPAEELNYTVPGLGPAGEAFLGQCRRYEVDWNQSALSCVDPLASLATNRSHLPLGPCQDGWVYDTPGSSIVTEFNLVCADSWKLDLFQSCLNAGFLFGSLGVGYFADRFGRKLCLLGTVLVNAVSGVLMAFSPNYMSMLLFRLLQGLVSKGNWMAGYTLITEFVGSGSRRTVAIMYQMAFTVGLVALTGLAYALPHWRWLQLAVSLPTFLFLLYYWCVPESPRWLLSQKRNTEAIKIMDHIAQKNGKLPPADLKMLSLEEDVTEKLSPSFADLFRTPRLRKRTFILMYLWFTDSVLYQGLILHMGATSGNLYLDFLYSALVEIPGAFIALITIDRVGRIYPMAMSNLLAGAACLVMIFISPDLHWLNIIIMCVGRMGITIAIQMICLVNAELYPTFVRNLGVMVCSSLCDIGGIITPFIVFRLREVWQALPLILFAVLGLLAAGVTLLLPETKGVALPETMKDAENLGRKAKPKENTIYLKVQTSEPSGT
Procedure: as §1

OCT1 [5] = biological target: T3, OCT1; assay: DDI risk R calculated from IC50 at human OCT1; details: R=1+fup×Iin,max/IC50, cutoff R ≥ 1.1
OCT1 [6] = details: ref Tzvetkov et al, 2018 (fenoterol); Matthaei et al, 2016 (sumatriptan); cited from earlier work
human OCTN1 (hOCTN1) = biological target: T4, human OCTN1 (hOCTN1) (Homo sapiens, UniProt Q9H015); assay: Uptake of the extended cocktail by HEK293 cells overexpressing hOCTN1; assay type: in vitro ADME; details: Fig. 6
T4 construct: expressed in transfected cells
T4 sequence (Q9H015 1-551): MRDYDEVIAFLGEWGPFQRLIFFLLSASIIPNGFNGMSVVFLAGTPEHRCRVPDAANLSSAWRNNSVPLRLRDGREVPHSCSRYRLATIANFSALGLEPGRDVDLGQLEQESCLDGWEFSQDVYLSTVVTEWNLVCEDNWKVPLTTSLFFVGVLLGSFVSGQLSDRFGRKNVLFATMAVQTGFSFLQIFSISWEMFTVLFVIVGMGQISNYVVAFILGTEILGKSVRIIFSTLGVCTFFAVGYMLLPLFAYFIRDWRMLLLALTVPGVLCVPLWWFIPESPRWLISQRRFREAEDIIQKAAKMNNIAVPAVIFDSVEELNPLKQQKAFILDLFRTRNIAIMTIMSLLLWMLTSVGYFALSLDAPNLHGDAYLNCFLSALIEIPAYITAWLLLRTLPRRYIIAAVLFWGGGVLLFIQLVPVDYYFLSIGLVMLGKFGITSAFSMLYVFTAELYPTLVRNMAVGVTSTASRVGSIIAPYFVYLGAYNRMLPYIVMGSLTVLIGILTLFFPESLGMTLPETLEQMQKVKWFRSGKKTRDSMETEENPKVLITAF

[7] = substrate: O=C(O[C@H]1C[C@H]2CC[C@@H](C1)[N+]21CCCC1)C(O)(c1ccccc1)c1ccccc1; assay: Transport kinetics (KM, vmax) of OCT1-mediated uptake, HEK293 cells overexpressing human OCT1; assay type: in vitro ADME; details: mean ± SD, pH 7.4
[8] = substrate: CC(Cc1ccc(O)cc1)NCC(O)c1cc(O)cc(O)c1; assay: cells, lysate or membranes named; details: mean ± SD, pH 7.4
[9] = Iin,max=Imax+Fa×ka×D/Qh, Qh 97 L/h, Fa 1, Imax for fenoterol and ipratropium
[10] = unbound maximum inhibitor concentration at the inlet of the liver
[11] = other: hOCT1, substrate tested alone
[12] = other: hOCT1, substrate tested in cocktail

Which “Imax, portal” value [1, 9] does the source give for `COc1ccc(CCN(C)CCCC(C#N)(c2ccc(OC)c(OC)c2)C(C)C)cc1OC` (stereo not shown) [Verapamil, verapamil] here?
Its value is 3550 ng/mL.

What about the ka ([1]; first-order absorption rate constant, calculated manually from available pharmacokinetic parameters) of the same molecule?
The ka was 2.65 h⁻¹.

What does the source list for `CC(C)(C)NCC(O)c1ccc(O)c(CO)c1` (stereo not shown) [Salbutamol, salbutamol]?
Km (human OCT1 (hOCT1)): 310 µM; uptake stronger in mouse than in human OCT1 (mouse OCT1; ratio mouse/human): 4.5 fold; Km (mOct1): 52.2 µM

Which IC50 (OCT1 [2]) does the source give for `COc1cc(Cc2cnc(N)nc2N)cc(OC)c1OC` [Trimethoprim, trimethoprim] here?
The IC50 was […].

What about the “cmax = Imax” value [3] of the same molecule?
Its value is 1200 ng/mL.

And the fraction unbound [3]?
The fraction unbound was 0.63.

What about the tmax ([3]; p.o., ref Hardman, 2018) of the same molecule?
The tmax was 2.00 h.

What about the t1/2 [3] of the same molecule?
The t1/2 was 10.00 h.

What about the “I max, portal, u” value ([1]; human, in vivo) of the same molecule?
The value was 8.53 µM.

And the “Imax, portal” value ([1]; human, in vivo)?
The value was 3932 ng/mL.

And the ka ([1]; human, in vivo)?
Its ka is 1.66 h⁻¹.

What about the k el ([1]; human, in vivo, po) of the same molecule?
The k el was 1.92e-05 s⁻¹.

What does the source list for `C[N@+]1(CC2CC2)CC[C@]23c4c5ccc(O)c4O[C@H]2C(=O)CC[C@@]3(O)[C@H]1C5` [Methylnaltrexone, methylnaltrexone]?
Km (human OCT1 (hOCT1)): 15.2 µM; Km (mOct1): 8.61 µM

For `CC(Cc1ccc(O)cc1)NCC(O)c1cc(O)cc(O)c1` (stereo not shown) [Fenoterol, fenoterol], which “transport by OCT1” value (OCT1 [4]; extended cocktail, Fig. 6) is on record?
Its value is “transported only by OCT1”.

And the “DDI risk R, victim drug ipratropium” value (OCT1 [5])?
The value was 1.00.

What about the “DDI risk R, victim drug metformin” value (OCT1 [5]) of the same molecule?
The value was 1.00.

And the “DDI risk R, victim drug methylnaltrexone” value (OCT1 [5])?
The value was 1.00.

What about the “DDI risk R, victim drug salbutamol” value (OCT1 [5]) of the same molecule?
The value was 1.00.

What about the “DDI risk R, victim drug sumatriptan” value (OCT1 [5]) of the same molecule?
Its value is 1.00.

What about the “DDI risk R, victim drug trospium” value (OCT1 [5]) of the same molecule?
Its value is 1.00.

What about the “DDI risk R, victim drug zolmitriptan” value (OCT1 [5]) of the same molecule?
The value was 1.00.

What about the Km (human OCT1 (hOCT1)) of the same molecule?
The Km was 1.8 µM.

And the “increase in systemic exposure in individuals homozygous for OCT1 loss-of-function genetic variants” value (OCT1 [6])?
Its value is 2 fold.

And the “cmax = Imax” value [3]?
Its value is 1.23 ng/mL.

What about the fraction unbound [3] of the same molecule?
The fraction unbound was 0.53.

And the t1/2 [3]?
Its t1/2 is 1.27 h.

And the “Imax, portal” value [1, 9]?
Its value is 1.23 ng/mL.

And the “I max, portal, u” value [1, 10]?
Its value is 0.0021 µM.

Which “human OCT1 uptake [fold change to pcDNA5]” value (OCT1 [4]; cocktail, fold change to the negative control, n = 12) does the source give for `CN(C)CCc1c[nH]c2ccc(C[C@H]3COC(=O)N3)cc12` [Zolmitriptan, zolmitriptan] here?
Its value is 6.6 fold change to pcDNA5.

And the Km (human OCT1 (hOCT1))?
Its Km is 105 µM.

What about the “mouse Oct1 uptake [fold change to pcDNA5]” value (mouse OCT1; fold change to the negative control, n = 12) of the same molecule?
Its value is 7.6 fold change to pcDNA5.

For `CC(C)[N+]1(C)[C@@H]2CC[C@H]1C[C@@H](OC(=O)C(CO)c1ccccc1)C2` (stereo partly shown) [Ipratropium, ipratropium], which “Imax, portal” value [1, 9] is on record?
Its value is 0.08 ng/mL.

And the “I max, portal, u” value [1, 10]?
The value was 0.0002 µM.

Which “transport by OCTN1” value (human OCTN1 (hOCTN1)) does the source give for `C[N+](C)(C)[C@@H](Cc1c[nH]c(=S)[nH]1)C(=O)[O-]` [L-ergothioneine] here?
Its value is “transported both L-carnitine and L-ergothioneine”.

B1: human OCT1 (hOCT1) (Homo sapiens) (protein)
chain: MPTVDDILEQVGESGWFQKQAFLILCLLSAAFAPICVGIVFLGFTPDHHCQSPGVAELSQRCGWSPAEELNYTVPGLGPAGEAFLGQCRRYEVDWNQSALSCVDPLASLATNRSHLPLGPCQDGWVYDTPGSSIVTEFNLVCADSWKLDLFQSCLNAGFLFGSLGVGYFADRFGRKLCLLGTVLVNAVSGVLMAFSPNYMSMLLFRLLQGLVSKGNWMAGYTLITEFVGSGSRRTVAIMYQMAFTVGLVALTGLAYALPHWRWLQLAVSLPTFLFLLYYWCVPESPRWLLSQKRNTEAIKIMDHIAQKNGKLPPADLKMLSLEEDVTEKLSPSFADLFRTPRLRKRTFILMYLWFTDSVLYQGLILHMGATSGNLYLDFLYSALVEIPGAFIALITIDRVGRIYPMAMSNLLAGAACLVMIFISPDLHWLNIIIMCVGRMGITIAIQMICLVNAELYPTFVRNLGVMVCSSLCDIGGIITPFIVFRLREVWQALPLILFAVLGLLAAGVTLLLPETKGVALPETMKDAENLGRKAKPKENTIYLKVQTSEPSGT
notes: expressed in transfected cells; empty vector control pcDNA5
What does the source list for B1?
Km [7, 11]: 16.9 ± 2.46 µM; Vmax [7, 11]: 0.000647 µmol/min/mg; Km [7, 12]: 13.9 ± 1.61 µM; Vmax [7, 12]: 0.000637 µmol/min/mg; Km [8, 11]: 0.94 ± 0.24 µM; Km [8, 12]: 0.95 ± 0.38 µM

Reference: article PMC12163485 (Drug Metabolism and Disposition, 2025)
